According to patent US20230330059A1, “3-PHENYL-2H-CHROMENE DERIVATIVE AND PHARMACEUTICAL COMPOSITION FOR PREVENTING OR TREATING ALZHEIMER'S, CONTAINING SAME” (NEUROBIONET, INC., priority 2020, published 2023):
Where two headings read alike, the source gives them in different places.

Legend:
[1] = test system: nitric oxide production in LPS-treated BV2 cells; assay: Nitric oxide production (Griess) in LPS-treated BV2 cells; assay type: cell-based, mouse; settings: LPS (100 ng/ml) 24 hours, Griess reagent, cell type not stated in Table 1, read-out: IC50 (NO production)
Experimental: BV2 cells were seeded at a density of 4 x 10^5 cells/well into 96-well plates, and primary microglial cells isolated from the brain of […] ICR mice were seeded at a density of 4 x 10^5 cells/well into 24-well plates.
The culture media were collected and measured for NO production using a Griess reagent solution (1% sulfanilamide and 0.1% N-1-naphthyl ethylenediamine dihydrochloride in 5% phosphoric acid). Briefly, a total of 50 µL of the supernatant was transferred to new 96-well plates and mixed with the same volume of the Griess reagent solution, followed by measuring OD at 570 nm. In addition, the cell viability was assayed in the same manner as in Experimental Example 2.

N2a cells = assay: Neurite outgrowth in N2a cells (Incucyte); assay type: cell-based, mouse; settings: 5 µM, FIGS. 14a and 14b
Experimental: N2a cells were aliquoted at a density of 1x10^4 cells/well into 24-well plates, treated with daidzein, o-desmethylangolensin, S-equal, SPA1413 and SPA1426 at 5 µM, and evaluated for neurite outgrowth by the real-time cell monitoring system InCucyte. The cells were photographed every 2 hours, and the neurites were counted through Incucyte software.

Row | SMILES | IC50 [1] [µM] | IC50 ([1]; Mus musculus, BV-2) [µM] | neurite outgrowth (N2a cells)
1 | CNC(=N)NCCC[C@H](N)C(=O)O [L-NMMA, reference compound] | 15.1 |  | 
2 | O=c1c(-c2ccc(O)cc2)coc2cc(O)ccc12 [Daidzein, reference compound] |  | 86.5 | significantly increased
3 | CC(C(=O)c1ccc(O)cc1O)c1ccc(O)cc1 (centres unmarked) [O-DMA, o-desmethylangolensin, reference compound] | 34.7 |  | 
4 | Oc1ccc([C@H]2COc3cc(O)ccc3C2)cc1 [S-equol, reference compound] | 11.7 |  | 
